Legend:
[1] = biological target: T1, strychnineinsensitive glycine recognition site (NMDA receptor-ion channel complex) (Rattus norvegicus, UniProt P35439); test: Glycine binding assay, [3H]glycine, synaptic plasma membranes; conditions: 10 nM [3H]glycine, pH 7.4, rat forebrain SPM; read-out: Ki apparent, Gly
T1 construct: Synaptic plasma membranes (SPM) were prepared from rat forebrain; from tissue; host or cells: rat forebrain synaptic plasma membranes
Description: Synaptic plasma membranes (SPM) were prepared from rat forebrain and stored as previously described [J. B. Monahan and J. Michel, J. Neurochem, 48, 1699-1708 (1987)]. Frozen membranes were thawed and diluted 1:20 with 0.04% triton X-100 in 50 mM tris/acetate (pH 7.4). Following incubation at 37° C. for 30 min., the SPM were collected by centrifugation at 95,000 X g for 15 min. The pellet was resuspended in 50 mM tris/acetate (pH 7.4, triton-free) and hand-homogenized five times. The membranes were again centrifuged as above. The pellet was washed two additional times with 50 mM tris/acetate (without homogenization) and centrifuged. The final pellet was resuspended with homogenization in 50 mM tris/acetate.
In the general receptor binding assay procedure, 10 nM [^3 H]glycine was added to the appropriate concentration of the test compounds and the assay initiated by the addition of 0.2-0.4 mg of ice cold SPM. The assay, which was done in 1.5 ml centrifuge tubes, was adjusted to a total volume of 1.0 ml with all additions being made in 50 mM tris/ acetate, pH 7.4 at 4° C. After a 10 minute incubation at 2° C., the samples were centrifuged for 15 min. at 12,000 g (4° C.) in a Beckman Microfuge 12. The supernatant was aspirated and the tube tip containing the pelleted membranes cut off and agitated in 0.5 ml of Beckman BTS-450 tissue solubilizer for a minimum of 6 hours at room temperature. Beckman MP scintillation cocktail (5 ml) containing 7 ml/liter acetic acid was then added and the samples counted on a Beckman LS 5800 liquid scintillation counter with automatic corrections for quenching and counting efficiency. […] The binding of [^3 H]glycine to the SPM was analyzed using Scatchard and Hill transformations and the Ki for other compounds was determined using logit-log analysis. Calculations and regression analysis were performed using templates developed for Lotus 123 as previously described [Pullan et al, Id.].

[2] = biological target: T2, NMDA receptor (rat brain receptor expressed in Xenopus oocytes) (Rattus norvegicus, UniProt P35439); test: Xenopus oocytes injected with rat cortex mRNA, blocking of glycine effects (voltage clamp); assay type: cell-based; conditions: 100 μM NMDA
T2 construct: PolyA+ RNA (mRNA) was extracted from adult male rat cortex; expressed in transfected cells; host or cells: Xenopus laevis oocytes microinjected with rat cortex poly(A)+ RNA
Description: PolyA+ RNA (mRNA) was extracted from adult male rat cortex using the refined guanidinium thiocyanate method developed by Han et al [J. H. Han et al., Biochemistry, 26, 1617-1625 (1987)] and the oligo (dT) cellulose chromatography procedure of Adiv and Leder [H. Aviv et al., Proc. Nat. Acad. Sci., 69, 1408-1412 (1972)]. Aliquots of mRNA (1.0 mg/ml water) were stored at -20° C.
Gravid adult female Xenopus laevis (Xenopus One, Ann Arbor, Mich. or NASCO, Ft. Atkinson, Wis.) were anaesthetized with 0.2% (w/v) Tricaine (3-amino benzoic acid ethyl ester; Sigma) and subjected to partial ovarectomy. Excised oocytes were then prepared and microinjected [N. W. Kleckner et al, Science 241 835-837 (1988)]. Oocytes were treated for one hour in Barth's solution (88.0 mM NaCl, 1.0 mM KCl, 2.4 mM NaHCO3, 0.41 mM CaCl2, 0.82 mM MgSO4, 10.0 μg/ml penicillin, 100.0 μg/ml streptomycin, 10.0 mM HEPES, pH 7.5) containing 1.5 mg/ml Neutral Protease (Beohringer Mannheim Biochemicals, Grade II). Oocytes were then placed in Barth's solution containing 100.0 mM sucrose and manually defolliculated with fine forceps. Defolliculated oocytes were then microinjected with approximately 50 ng of mRNA in Barth's solution at 16°-18° C.
Oocytes were assayed 2-8 days later for rat brain receptor expression via single electrode voltage. clamp (Axoclamp 2A, Axon Instruments) in a manner similar to that previously described [Kleckner et al, Id.]. […] Drugs were added to the perfusate and inward currents induced by agonist compounds were measured at peak steady state response. […] Antagonist compounds were perfused for a minimum of 3.0 minutes prior to subsequent agonist co-application. Data are expressed as percent maximal response (mean±S.E.M.). Half-maximal responses (EC50 's) and slopes for dose response data were determined from the least squares fit to the logistic regression equation.

[3] = test system: Cerebellar cGMP; test: Assay for effect on cGMP (cerebellum, intracisternal injection); assay type: in vivo, Swiss Hausche mice; conditions: ± SEM
Description: Male Swiss Hausche mice (25-30 g) were injected intracisternally (i.c.t.) with glycine agonists 10 minutes prior to sacrifice by focussed microwave irradiation. Compounds of the invention were injected intracisternally 2 minutes prior to the agonist. For intracisternal injections, al agonists were dissolved in HCl and diluted with isotonic saline prior to adjustment of the pH to between 6 and 7 with NaOH. The compounds of the invention were dissolved in isotonic saline and all compounds were administered in a volume of 5 μl.
Hydrochloric acid in extracts of the cerebellum were freeze-dried for assay of cGMP with a commercial RIA kit (NEN). Protein determinations (Lowery) and statistics (Dunett's t-test) were performed as described previously [P. L. Wcod et al., Neurochem., 19, 975-982 (1980)]. Groups consisted of 7-10 mice.

With `O=C(O)Cc1c(C(=O)O)[nH]c2cc(Cl)ccc12` [Compound No. 6, 2-carboxy-6-chloro-3-indoleacetic acid] the Ki [1] was 1300 nM, the IC50 ([2]; IC50, 0.1 μM Gly, 0.1 μM glycine) was 770 ± 120 nM and the IC50 ([2]; IC50, 1.0 μM Gly, 1.0 μM glycine) was 3200 ± 1100 nM. For the same molecule, the IC50 ([2]; IC50, 10 μM Gly, 10 μM glycine) was 6100 ± 3200 nM, the “Cerebellar cGMP” value ([3]; Compound No. 6 (5 μg) alone) was 3.5 ± 0.55 pmol/mg protein and the “Cerebellar cGMP” value ([3]; D-Serine (100 μg) + Compound No. 6 (5 μg)) was 5.8 ± 0.96 pmol/mg protein.
